According to patent US6737383B1, “Herbicidal oxadiazolidines” (priority 1999, dated 2004):

Tests used:
[1] = tested on: corn; assay: Test B pre/postemergence corn; assay type: in vivo, Zea mays; details: for Corn plant response rating (0 to 10 scale): 0 is no effect
Method in brief: (§1)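 Test chemicals in a non-phytotoxic solvent mixture with surfactant were sprayed preemergence onto planted seeds and postemergence onto plants 2 to 18 cm tall (1- to 4-leaf stage). After twelve to sixteen days in a greenhouse, injury was visually rated against untreated controls from 0 (no effect) to 10 (complete control).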

[2] = tested on: crabgrass; assay: Test B pre/postemergence crabgrass; assay type: in vivo, Digitaria sanguinalis; details: for Crabgrass plant response rating (0 to 10 scale): 0 is no effect
Method in brief: as §1

[3] = tested on: velvetleaf; assay: Test B pre/postemergence velvetleaf; assay type: in vivo, Abutilon theophrasti; details: for Plant response rating, Velvetleaf: Rate 500 g/ha
Method in brief: as §1

[4] = tested on: rice; assay: Test B flood test rice; assay type: in vivo, Oryza sativa
Method in brief: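 Read-out is a visual response score from 0 (no effect) to 10 (complete control), assigned by comparison with untreated controls. Treatment was applied at the 2-leaf stage, and plants stayed in the greenhouse for twelve to sixteen days before scoring.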

[5] = tested on: winter wheat; assay: Test E winter wheat; assay type: in vivo, Triticum aestivum; details: Postemergence, 0 to 100 scale
Method in brief: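 Postemergence: 60:40 sandy loam/greenhouse potting mix, 1- to 4-leaf stage. Formulation: solvent plus surfactant. Assessment: visual comparison with untreated controls at ~21–28 days.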

[6] = tested on: blackgrass; assay: Test E blackgrass; assay type: in vivo, Alopecurus myosuroides; details: Preemergence; for Blackgrass plant response rating (0 to 100 scale): Rate 250 g/ha
[7] = tested on: green foxtail; assay: Test E green foxtail; assay type: in vivo, Setaria viridis; details: Preemergence; for Green foxtail plant response rating (0 to 100 scale): Rate 250 g/ha
[8] = tested on: Italian ryegrass; assay: Test E Italian ryegrass; assay type: in vivo, Lolium multiflorum; details: Preemergence; for I. Ryegrass plant response rating (0 to 100 scale): Rate 250 g/ha
[9] = tested on: winter wheat; assay: Test E winter wheat; assay type: in vivo, Triticum aestivum; details: Preemergence; for Wheat (winter) plant response rating (0 to 100 scale): Rate 250 g/ha
[10] = tested on: wild oat; assay: Test E wild oat; assay type: in vivo, Avena fatua; details: Preemergence; for Wild oat plant response rating (0 to 100 scale): Rate 250 g/ha
[11] = tested on: winter barley; assay: Test E winter barley; assay type: in vivo, Hordeum vulgare; details: Preemergence; for Barley (winter) plant response rating (0 to 100 scale): Rate 250 g/ha
[12] = Preemergence, Rate 62 g/ha, scale of 0 to 10 where 0 is no effect and 10 is complete control
[13] = Preemergence, Rate 125 g/ha, 10 is complete control
[14] = Preemergence, Rate 250 g/ha, scale 0 to 10, 0 is no effect, 10 is complete control
[15] = Preemergence, Rate 500 g/ha, scale of 0 to 10 where 0 is no effect and 10 is complete control
[16] = Rate 62 g/ha, Postemergence, scale of 0 to 10 where 0 is no effect and 10 is complete control
[17] = Rate 125 g/ha, Postemergence, scale 0 to 10
[18] = Rate 500 g/ha, Postemergence, scale 0 to 10
[19] = Preemergence, scale of 0 to 10 where 0 is no effect and 10 is complete control
[20] = Rate 62 g/ha, 0 to 100 scale, 0 no effect, 100 complete control
[21] = Rate 125 g/ha, 0 to 100 scale (0 no effect, 100 complete control)
[22] = Rate 500 g/ha, 0 to 100 scale where 0 is no effect and 100 is complete control
[23] = Rate 1000 g/ha, 0 to 100 scale where 0 is no effect and 100 is complete control

**Q.** How did the “Corn plant response rating” value [1, 12] turn out when C=C(C)CCn1c(=O)on(C(=O)N(c2ccc(F)cc2)C(C)C)c1=O [Compound 199] was run?
**A.** 0

**Q.** And the “Corn plant response rating (0 to 10 scale)” value [1, 13]?
**A.** 0

**Q.** And the “Corn plant response rating” value [1, 14]?
**A.** 0

**Q.** What about the “Plant response rating, Corn” value [1, 15] of the same compound?
**A.** 0

**Q.** What about the “Corn plant response rating” value [1, 16] of the same compound?
**A.** 0

**Q.** What about the “Corn plant response rating” value [1, 17] of the same compound?
**A.** 0

**Q.** And the “Plant response rating (0 to 10; 0 is no effect, 10 is complete control), Corn” value ([1]; Rate 250 g/ha, Postemergence)?
**A.** 0

**Q.** What about the “Corn plant response rating” value [1, 18] of the same compound?
**A.** 0

**Q.** What about the “Crabgrass plant response rating” value [2, 12] of the same compound?
**A.** 6

**Q.** And the “Crabgrass plant response rating (0 to 10 scale)” value [2, 13]?
**A.** 6

**Q.** What about the “Crabgrass plant response rating” value [2, 14] of the same compound?
**A.** 10

**Q.** What about the “Plant response rating, Crabgrass” value [2, 15] of the same compound?
**A.** 10

**Q.** And the “Crabgrass plant response rating” value [2, 16]?
**A.** 0

**Q.** And the “Crabgrass plant response rating” value [2, 17]?
**A.** 2

**Q.** What about the “Plant response rating (0 to 10; 0 is no effect, 10 is complete control), Crabgrass” value ([2]; Rate 250 g/ha, Postemergence) of the same compound?
**A.** 8

**Q.** And the “Crabgrass plant response rating” value [2, 18]?
**A.** 8

**Q.** And the “Velvetleaf plant response rating” value [3, 12]?
**A.** 0

**Q.** And the “Velvetleaf plant response rating” value [3, 14]?
**A.** 0

**Q.** What about the “Plant response rating, Velvetleaf” value [3, 19] of the same compound?
**A.** 0

**Q.** And the “Velvetleaf plant response rating” value [3, 16]?
**A.** 0

**Q.** And the “Velvetleaf plant response rating” value [3, 17]?
**A.** 0

**Q.** What about the “Plant response rating (0 to 10; 0 is no effect, 10 is complete control), Velvetleaf” value ([3]; Rate 250 g/ha, Postemergence) of the same compound?
**A.** 0

**Q.** And the “Rice plant response rating” value ([4]; Rate 62 g/ha, Postemergence section, flood test species, scale of 0 to 10 where 0 is no effect and 10 is complete control)?
**A.** 0

**Q.** What about the “Rice plant response rating” value ([4]; Rate 125 g/ha, listed under Postemergence (flood test species), scale 0 to 10) of the same compound?
**A.** 0

**Q.** And the “Plant response rating (0 to 10; 0 is no effect, 10 is complete control), Rice” value ([4]; Rate 250 g/ha, Postemergence section, flood test species)?
**A.** 0

**Q.** And the “Rice plant response rating” value ([4]; Rate 500 g/ha, listed under Postemergence (flood test species), scale 0 to 10)?
**A.** 0

**Q.** What about the “Plant response rating, Wheat (winter)” value ([5]; Rate 62 g/ha) of the same compound?
**A.** 50

**Q.** What about the “Plant response rating, Wheat (winter)” value ([5]; Rate 125 g/ha) of the same compound?
**A.** 55

**Q.** What about the “Plant response rating, Blackgrass” value [6, 20] of the same compound?
**A.** 60

**Q.** And the “Plant response rating, Blackgrass” value [6, 21]?
**A.** 65

**Q.** What about the “Blackgrass plant response rating (0 to 100 scale)” value [6] of the same compound?
**A.** 60

**Q.** What about the “Plant response rating, Green foxtail” value [7, 20] of the same compound?
**A.** 100

**Q.** What about the “Plant response rating, Green foxtail” value [7, 21] of the same compound?
**A.** 100

**Q.** What about the “Green foxtail plant response rating (0 to 100 scale)” value [7] of the same compound?
**A.** 100

**Q.** And the “Plant response rating, I. Ryegrass” value [8, 20]?
**A.** 70

**Q.** And the “Plant response rating, I. Ryegrass” value [8, 21]?
**A.** 60

**Q.** And the “I. Ryegrass plant response rating (0 to 100 scale)” value [8]?
**A.** 70

**Q.** And the “Plant response rating, Wheat (winter)” value [9, 20]?
**A.** 60

**Q.** What about the “Plant response rating, Wheat (winter)” value [9, 21] of the same compound?
**A.** 70

**Q.** And the “Wheat (winter) plant response rating (0 to 100 scale)” value [9]?
**A.** 50

**Q.** What about the “Plant response rating, Wild oat” value [10, 20] of the same compound?
**A.** 60

**Q.** What about the “Plant response rating, Wild oat” value [10, 21] of the same compound?
**A.** 70

**Q.** What about the “Wild oat plant response rating (0 to 100 scale)” value [10] of the same compound?
**A.** 80

**Q.** What about the “Plant response rating, Barley (winter)” value [11, 20] of the same compound?
**A.** 70

**Q.** What about the “Plant response rating, Barley (winter)” value [11, 21] of the same compound?
**A.** 70

**Q.** What about the “Barley (winter) plant response rating (0 to 100 scale)” value [11] of the same compound?
**A.** 70

**Q.** CC(C)N(C(=O)n1oc(=O)n(Cc2ccco2)c1=O)c1ccc(F)cc1F [Compound 208] was tested. Which “Corn plant response rating” value [1, 12] did it give?
**A.** 0

**Q.** What about the “Corn plant response rating (0 to 10 scale)” value [1, 13] of the same compound?
**A.** 0

**Q.** And the “Corn plant response rating” value [1, 14]?
**A.** 0

**Q.** And the “Plant response rating, Corn” value [1, 15]?
**A.** 0

**Q.** And the “Corn plant response rating” value [1, 16]?
**A.** 0

**Q.** What about the “Corn plant response rating” value [1, 17] of the same compound?
**A.** 0

**Q.** And the “Plant response rating (0 to 10; 0 is no effect, 10 is complete control), Corn” value ([1]; Rate 250 g/ha, Postemergence)?
**A.** 0

**Q.** What about the “Corn plant response rating” value [1, 18] of the same compound?
**A.** 0

**Q.** What about the “Crabgrass plant response rating” value [2, 12] of the same compound?
**A.** 4

**Q.** And the “Crabgrass plant response rating (0 to 10 scale)” value [2, 13]?
**A.** 5

**Q.** And the “Crabgrass plant response rating” value [2, 14]?
**A.** 6

**Q.** And the “Plant response rating, Crabgrass” value [2, 15]?
**A.** 6

**Q.** And the “Crabgrass plant response rating” value [2, 16]?
**A.** 0

**Q.** And the “Crabgrass plant response rating” value [2, 17]?
**A.** 0

**Q.** And the “Plant response rating (0 to 10; 0 is no effect, 10 is complete control), Crabgrass” value ([2]; Rate 250 g/ha, Postemergence)?
**A.** 0

**Q.** What about the “Crabgrass plant response rating” value [2, 18] of the same compound?
**A.** 3

**Q.** And the “Velvetleaf plant response rating” value [3, 12]?
**A.** 0

**Q.** And the “Velvetleaf plant response rating” value [3, 14]?
**A.** 0

**Q.** And the “Plant response rating, Velvetleaf” value [3, 19]?
**A.** 3

**Q.** And the “Velvetleaf plant response rating” value [3, 16]?
**A.** 1

**Q.** And the “Velvetleaf plant response rating” value [3, 17]?
**A.** 1

**Q.** And the “Plant response rating (0 to 10; 0 is no effect, 10 is complete control), Velvetleaf” value ([3]; Rate 250 g/ha, Postemergence)?
**A.** 1

**Q.** What about the “Rice plant response rating” value ([4]; Rate 62 g/ha, headed Pre-emergence (flood test species), scale 0 to 10 (0 no effect, 10 complete control)) of the same compound?
**A.** 0

**Q.** And the “Rice plant response rating” value ([4]; Rate 125 g/ha, Pre-emergence, flood test species, scale 0 to 10 where 0 is no effect and 10 is complete control)?
**A.** 0

**Q.** What about the “Rice plant response rating” value ([4]; Rate 250 g/ha, Pre-emergence, flood-test species, scale 0 to 10, 0 is no effect, 10 is complete control) of the same compound?
**A.** 0

**Q.** And the “Rice plant response rating” value ([4]; Rate 500 g/ha, Pre-emergence, flood test species, scale 0 to 10 (0 no effect, 10 complete control))?
**A.** 0

**Q.** And the “Plant response rating, Wheat (winter)” value ([5]; Rate 1000 g/ha, 0 is no effect and 100 is complete control)?
**A.** 60

**Q.** And the “Plant response rating, Wheat (winter)” value ([5]; Rate 500 g/ha, 0 is no effect, 100 is complete control)?
**A.** 50

**Q.** What about the “Blackgrass plant response rating (0 to 100 scale)” value [6] of the same compound?
**A.** 40

**Q.** What about the “Plant response rating, Blackgrass” value [6, 22] of the same compound?
**A.** 85

**Q.** What about the “Plant response rating, Blackgrass” value [6, 23] of the same compound?
**A.** 85

**Q.** What about the “Green foxtail plant response rating (0 to 100 scale)” value [7] of the same compound?
**A.** 40

**Q.** And the “Plant response rating, Green foxtail” value [7, 22]?
**A.** 60

**Q.** What about the “Plant response rating, Green foxtail” value [7, 23] of the same compound?
**A.** 70

**Q.** And the “I. Ryegrass plant response rating (0 to 100 scale)” value [8]?
**A.** 50

**Q.** And the “Plant response rating, I. Ryegrass” value [8, 22]?
**A.** 60

**Q.** What about the “Plant response rating, I. Ryegrass” value [8, 23] of the same compound?
**A.** 95

**Q.** And the “Wheat (winter) plant response rating (0 to 100 scale)” value [9]?
**A.** 30

**Q.** What about the “Plant response rating, Wheat (winter)” value [9, 22] of the same compound?
**A.** 30

**Q.** And the “Plant response rating, Wheat (winter)” value [9, 23]?
**A.** 30

**Q.** What about the “Wild oat plant response rating (0 to 100 scale)” value [10] of the same compound?
**A.** 50

**Q.** And the “Plant response rating, Wild oat” value [10, 22]?
**A.** 60

**Q.** And the “Plant response rating, Wild oat” value [10, 23]?
**A.** 50

**Q.** And the “Barley (winter) plant response rating (0 to 100 scale)” value [11]?
**A.** 30

**Q.** And the “Plant response rating, Barley (winter)” value [11, 22]?
**A.** 40

**Q.** What about the “Plant response rating, Barley (winter)” value [11, 23] of the same compound?
**A.** 50
